From US9346795B2, “Substituted sulfonamides useful as antiapoptotic Bcl inhibitors” (Bristol-Myers Squibb Company, priority 2011, dated 2016)
pIC50: −log10 of the molar value.

Key:
Bcl-2 = Bcl-2 (Homo sapiens (Human), UniProt P10415); test: Bcl-2/Bim Fluorescence Polarization Assay (FPA); type: binding
Method: Bcl-2/Bim Fluorescence Polarization Assay (FPA)
The assays were performed in black flat-bottom 384-well plates. […] The reaction was incubated at room temperature for 60 minutes and fluorescence polarization of the reaction was detected on the LJL Plate Reader. Inhibition data were calculated from mP values generated by the no protein control reactions for 100% inhibition and vehicle-only reactions for 0% inhibition. The final concentrations of reagents in the assay were 4.9 nM BCL-2, 5 nM fluoresceinated 18-mer BIM peptide and 1% DMSO. […] Compounds were dissolved at 10 mM in dimethylsulfoxide (DMSO) and evaluated at eleven concentrations. IC50 values were derived by non-linear regression analysis.

Bcl-xL = Bcl-xL (Homo sapiens (Human), UniProt Q07817); test: Bcl-xL/Bim Fluorescence Resonance Energy Transfer Assay (FRET); type: binding
Method: Bcl-xL/Bim Fluorescence Resonance Energy Transfer Assay (FRET) The assays were performed in black flat-bottom 384-well plates. The final assay volume was 55 μl prepared from additions of Biotin-Bcl-xL (Bcl-xL: GENBANK® Accession No. […] The reaction was incubated at room temperature for 60 minutes. After 60 minutes, 5 μL of Streptavidin-Terbium FRET detection reagent (Perkin Elmer) was added to the reaction mixture and incubated at room temperature in the dark for 30 mins. […] Compounds were dissolved at 10 mM in dimethylsulfoxide (DMSO) and evaluated at eleven concentrations. IC50 values were derived by non-linear regression analysis.

Bcl-xL, sequence (Q07817 whole entry): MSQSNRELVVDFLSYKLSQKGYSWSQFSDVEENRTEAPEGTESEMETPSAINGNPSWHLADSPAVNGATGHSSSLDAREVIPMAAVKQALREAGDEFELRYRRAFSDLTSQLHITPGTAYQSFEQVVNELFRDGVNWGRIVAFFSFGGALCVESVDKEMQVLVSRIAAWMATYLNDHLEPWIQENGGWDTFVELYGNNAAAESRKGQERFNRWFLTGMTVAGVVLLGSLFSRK
Bcl-2, sequence (P10415 whole entry): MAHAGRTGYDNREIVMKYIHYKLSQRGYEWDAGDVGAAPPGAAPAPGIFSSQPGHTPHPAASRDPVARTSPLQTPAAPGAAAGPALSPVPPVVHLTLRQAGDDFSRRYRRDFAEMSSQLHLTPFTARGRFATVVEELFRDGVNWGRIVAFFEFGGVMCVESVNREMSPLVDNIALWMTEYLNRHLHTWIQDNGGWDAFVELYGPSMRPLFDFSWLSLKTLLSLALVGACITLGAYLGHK

SMILES	pIC50 (Bcl-2)	pIC50 (Bcl-xL)
CCCCN(CCC(=O)NCCN1CCN(C)CC1)C(=O)c1nn(-c2ccc(C(=O)NS(=O)(=O)c3ccc4c(c3)CCN4Cc3ccc(Cl)c(Cl)c3)cc2C(=O)N2CCc3ccccc3C2)c(C)c1Cl [Example 200, N-butyl-4-chloro-1-(4-(1-(3,4-dichlorobenzyl)indolin-5-ylsulfonylcarbamoyl)-2-(1,2,3,4-tetrahydroisoquinoline-2-carbonyl)phenyl)-5-methyl-N-(3-(2-(4-methylpiperazin-1-yl)ethylamino)-3-oxopropyl)-1H-pyrazole-3-carboxamide]	6.00	6.89
CCCCN(CCCC)C(=O)c1nn(-c2ccc(C(=O)NS(=O)(=O)c3ccc4c(N(C)C)ccc(Br)c4c3)cc2C(=O)N2CCc3ccccc3C2)c(C)c1Cl [Example 31, 1-(4-(8-bromo-5-(dimethylamino)naphthalen-2-ylsulfonylcarbamoyl)-2-(1,2,3,4-tetrahydroisoquinoline-2-carbonyl)phenyl)-N,N-dibutyl-4-chloro-5-methyl-1H-pyrazole-3-carboxamide]	7.52	7.15
CCCCN(CCC(=O)NCCN1CCN(C)CC1)C(=O)c1nn(-c2ccc(C(=O)NS(=O)(=O)c3ccc4ccccc4c3)cc2C(=O)N2CCc3ccccc3C2)c(C)c1Cl [Example 158, N-Butyl-4-chloro-5-methyl-N-(3-(2-(4-methylpiperazin-1-yl)ethylamino)-3-oxopropyl)-1-(4-(naphthalen-2-ylsulfonylcarbamoyl)-2-(1,2,3,4-tetrahydroisoquinoline-2-carbonyl)phenyl)-1H-pyrazole-3-carboxamide]	7.15	7.70
CCCCc1c(-c2ccc(C(=O)NS(=O)(=O)c3ccc4ccccc4c3)cc2C(=O)N2Cc3ccccc3C[C@H]2CO)c(CO)nn1-c1ccccc1 [Example 260, 4-(5-Butyl-3-(hydroxymethyl)-1-phenyl-1H-pyrazol-4-yl)-3-((S)-3-(hydroxymethyl)-1,2,3,4-tetrahydroisoquinoline-2-carbonyl)-N-(naphthalen-2-ylsulfonyl)benzamide]	8.00	8.10
CCCCN(CCCC)C(=O)c1nn(-c2ccc(C(=O)NS(=O)(=O)c3ccc4c(ccn4CCCN4CCOCC4)c3)cc2C(=O)N2CCc3ccccc3C2)c(C)c1Cl [Example 82, N,N-dibutyl-4-chloro-5-methyl-1-(4-(1-(3-morpholinopropyl)-1H-indol-5-ylsulfonylcarbamoyl)-2-(1,2,3,4-tetrahydroisoquinoline-2-carbonyl)phenyl)-1H-pyrazole-3-carboxamide]	6.41	7.52
CCCN(CCC)c1ncc(Cl)c(-c2ccc(C(=O)NS(=O)(=O)c3ccc4cccc(Cl)c4c3)cc2C(=O)N2Cc3ccccc3C[C@H]2CN)n1 [Example 329, 3-((S)-3-(Aminomethyl)-1,2,3,4-tetrahydroisoquinoline-2-carbonyl)-4-(5-chloro-2-(dipropylamino)pyrimidin-4-yl)-N-(8-chloronaphthalen-2-ylsulfonyl)benzamide]	8.29	7.70
CCCCc1c(-c2ccc(C(=O)NS(=O)(=O)CC[Si](C)(C)C)cc2C(=O)N2CCc3ccccc3C2)c(C(=O)OCC)nn1-c1ccccc1 [Example 239, Ethyl 5-butyl-1-phenyl-4-(2-(1,2,3,4-tetrahydroisoquinoline-2-carbonyl)-4-(2-(trimethylsilyl)ethylsulfonylcarbamoyl)phenyl)-1H-pyrazole-3-carboxylate]	6.24	7.52
CCCCN(CCCC)C(=O)c1nn(-c2ccc(C(=O)NS(=O)(=O)c3ccc4ccccc4c3)cc2C(=O)N2Cc3ccccc3C[C@H]2CNC2CCN(C)CC2)c(C)c1Cl [Example 106, N,N-Dibutyl-4-chloro-5-methyl-1-(2-((S)-3-((1-methylpiperidin-4-ylamino)methyl)-1,2,3,4-tetrahydroisoquinoline-2-carbonyl)-4-(naphthalen-2-ylsulfonylcarbamoyl)phenyl)-1H-pyrazole-3-carboxamide]	7.70	–
CCCCc1c(-c2ccc(C(=O)NS(=O)(=O)c3ccc4ccccc4c3)cc2C(=O)N2CCc3ccccc3C2)c(CO)nn1-c1ccc(OCC(O)CO)cc1 (racemic) [Example 258, (±)-4-(5-Butyl-1-(4-(2,3-dihydroxypropoxy)phenyl)-3-(hydroxymethyl)-1H-pyrazol-4-yl)-N-(naphthalen-2-ylsulfonyl)-3-(1,2,3,4-tetrahydroisoquinoline-2-carbonyl)benzamide]	8.09	–

Results, then the molecule that gave them:

pIC50 (Bcl-2)	pIC50 (Bcl-xL)	SMILES
6.70	7.52	CCCCN(CCCC)C(=O)c1nn(-c2ccc(C(=O)NS(=O)(=O)c3ccc4c(Cl)cccc4c3)cc2C(=O)N2CCc3ccccc3C2)c(C)c1Cl [Example 2, N,N-dibutyl-4-chloro-1-(4-(5-chloronaphthalen-2-ylsulfonylcarbamoyl)-2-(1,2,3,4-tetrahydroisoquinoline-2-carbonyl)phenyl)-5-methyl-1H-pyrazole-3-carboxamide]
7.30	–	CCCCN(CCCC)C(=O)c1nn(-c2ccc(C(=O)NS(=O)(=O)c3ccc4ccccc4c3)cc2C(=O)N2Cc3ccccc3C[C@H]2CO)c(C)c1Cl [Example 91, N,N-Dibutyl-4-chloro-1-(2-((S)-3-(hydroxymethyl)-1,2,3,4-tetrahydroisoquinoline-2-carbonyl)-4-(naphthalen-2-ylsulfonylcarbamoyl)phenyl)-5-methyl-1H-pyrazole-3-carboxamide]
6.96	7.40	CCCCN(CCCC)C(=O)c1cn(C)c(-c2ccc(C(=O)NS(=O)(=O)c3ccc4ccccc4c3)cc2C(=O)N2CCc3ccccc3C2)n1 [Example 264, N,N-Dibutyl-1-methyl-2-(4-(naphthalen-2-ylsulfonylcarbamoyl)-2-(1,2,3,4-tetrahydroisoquinoline-2-carbonyl)phenyl)-1H-imidazole-4-carboxamide]
–	7.30	CCCCN(CCCC)C(=O)c1nn(-c2ccc(C(=O)NS(=O)(=O)c3ccc4ccc(I)cc4c3)cc2C(=O)N2CCc3ccccc3C2)c(C)c1Cl [Example 11, N,N-dibutyl-4-chloro-1-(4-(7-iodonaphthalen-2-ylsulfonylcarbamoyl)-2-(1,2,3,4-tetrahydroisoquinoline-2-carbonyl)phenyl)-5-methyl-1H-pyrazole-3-carboxamide]
8.08	8.00	CCCCN(CCCC)C(=O)c1nn(-c2ccc(C(=O)NS(=O)(=O)c3ccc4ccccc4c3)cc2C(=O)N2Cc3ccccc3C[C@H]2CN)c(C)c1Cl [Example 92, 1-(2-((S)-3-(Aminomethyl)-1,2,3,4-tetrahydroisoquinoline-2-carbonyl)-4-(naphthalen-2-ylsulfonylcarbamoyl)phenyl)-N,N-dibutyl-4-chloro-5-methyl-1H-pyrazole-3-carboxamide]
6.85	7.52	CCCCN(CCCC)C(=O)c1cn(CC(=O)O)c(-c2ccc(C(=O)NS(=O)(=O)c3cccc4ccccc34)cc2C(=O)N2CCc3ccccc3C2)n1 [Example 269, 2-(4-(Dibutylcarbamoyl)-2-(4-(naphthalen-1-ylsulfonylcarbamoyl)-2-(1,2,3,4-tetrahydroisoquinoline-2-carbonyl)phenyl)-1H-imidazol-1-yl)acetic acid]
